# Data: patent US20250249056A1, “CANCER THERAPIES COMPRISING A NUCLEAR EXPORT INHIBITOR AND AN ONCOLYTIC VIRUS” (priority 2022, published 2025)
# System: Colo205 cells
# Type: cell-based, human
structure (smiles),measurement,setting,value
O=C(/C=C\n1cnc(-c2cc(C(F)(F)F)cc(C(F)(F)F)c2)n1)NNc1cnccn1 [selinexor],"Differential protein expression, SCAF1",,100
same,"Differential protein expression, A2ML1","A8K2U0, selinexor-treated cytoplasm vs control cytoplasm",3.444
same,"Differential protein expression, PHF20L1","A8MW92, selinexor-treated cytoplasm vs control cytoplasm",0.01
same,"Differential protein expression, KPNA7","A9QM74, selinexor-treated cytoplasm vs control cytoplasm",0.149
same,"Differential protein expression, accession B2CWB5","B2CWB5 (gene symbol not given), selinexor-treated cytoplasm vs control cytoplasm",0.01
same,"Differential protein expression, m033R","B2CWE0, selinexor-treated cytoplasm vs control cytoplasm",0.01
same,"Differential protein expression, m047R","B2CWF4, selinexor-treated cytoplasm vs control cytoplasm",0.01
same,"Differential protein expression, m060R","B2CWG7, selinexor-treated cytoplasm vs control cytoplasm",0.01
same,"Differential protein expression, accession B2CWJ3","B2CWJ3 (gene symbol not given), selinexor-treated cytoplasm vs control cytoplasm",0.01
same,"Differential protein expression, accession B2CWL4","B2CWL4 (gene symbol not given), selinexor-treated cytoplasm vs control cytoplasm",100
same,"Differential protein expression, m149R","B2CWQ5, selinexor-treated cytoplasm vs control cytoplasm",100
same,"Differential protein expression, HNRNPCL2","B2RXH8, selinexor-treated cytoplasm vs control cytoplasm",2.92
same,"Differential protein expression, HNRNPCL3","B7ZW38, selinexor-treated cytoplasm vs control cytoplasm",2.963
same,"Differential protein expression, m107L","E2CZJ6, selinexor-treated cytoplasm vs control cytoplasm",100
same,"Differential protein expression, m126R","E2CZL5, selinexor-treated cytoplasm vs control cytoplasm",0.193
same,"Differential protein expression, m001R","E2CZP2, selinexor-treated cytoplasm vs control cytoplasm",3.839
same,"Differential protein expression, m009L","E2CZQ3, selinexor-treated cytoplasm vs control cytoplasm",0.01
same,"Differential protein expression, m055R","E2CZV0, selinexor-treated cytoplasm vs control cytoplasm",2.342
same,"Differential protein expression, m072L","E2CZW7, selinexor-treated cytoplasm vs control cytoplasm",3.124
same,"Differential protein expression, m086L","E2CZY1, selinexor-treated cytoplasm vs control cytoplasm",0.01
same,"Differential protein expression, AGRN","O00468, selinexor-treated cytoplasm vs control cytoplasm",0.494
same,"Differential protein expression, SDCBP","O00560, selinexor-treated cytoplasm vs control cytoplasm",2.743
same,"Differential protein expression, MPHOSPH10","O00566, selinexor-treated cytoplasm vs control cytoplasm",2.761
same,"Differential protein expression, UBE2C","O00762, selinexor-treated cytoplasm vs control cytoplasm",0.459
same,"Differential protein expression, SCD","O00767, selinexor-treated cytoplasm vs control cytoplasm",0.297
same,"Differential protein expression, M-T1","O10625, selinexor-treated cytoplasm vs control cytoplasm",3.839
same,"Differential protein expression, CLDN4","O14493, selinexor-treated cytoplasm vs control cytoplasm",10.645
same,"Differential protein expression, UTY","O14607, selinexor-treated cytoplasm vs control cytoplasm",0.01
same,"Differential protein expression, MEIS2","O14770, selinexor-treated cytoplasm vs control cytoplasm",0.01
same,"Differential protein expression, BACH1","O14867, selinexor-treated cytoplasm vs control cytoplasm",100
same,"Differential protein expression, IRF6","O14896, selinexor-treated cytoplasm vs control cytoplasm",2.466
same,"Differential protein expression, MYL12B","O14950, selinexor-treated cytoplasm vs control cytoplasm",2.249
same,"Differential protein expression, XPO1","O14980, selinexor-treated cytoplasm vs control cytoplasm",0.335
same,"Differential protein expression, MAPK13","O15264, selinexor-treated cytoplasm vs control cytoplasm",2.006
same,"Differential protein expression, DDX3Y","O15523, selinexor-treated cytoplasm vs control cytoplasm",100
same,"Differential protein expression, MAFG","O15525, selinexor-treated cytoplasm vs control cytoplasm",0.453
same,"Differential protein expression, CLDN3","O15551, selinexor-treated cytoplasm vs control cytoplasm",2.357
same,"Differential protein expression, SPINT1","O43278, selinexor-treated cytoplasm vs control cytoplasm",4.255
same,"Differential protein expression, KDELR3","O43731, selinexor-treated cytoplasm vs control cytoplasm",0.379
same,"Differential protein expression, ZBTB14","O43829, selinexor-treated cytoplasm vs control cytoplasm",0.01
same,"Differential protein expression, HNRNPCL1","O60812, selinexor-treated cytoplasm vs control cytoplasm",2.92
same,"Differential protein expression, NOS1AP","O75052, selinexor-treated cytoplasm vs control cytoplasm",0.01
same,"Differential protein expression, SIN3B","O75182, selinexor-treated cytoplasm vs control cytoplasm",0.01
same,"Differential protein expression, ZNF217","O75362, selinexor-treated cytoplasm vs control cytoplasm",2.042
same,"Differential protein expression, TAF5L","O75529, selinexor-treated cytoplasm vs control cytoplasm",100
same,"Differential protein expression, BANF1","O75531, selinexor-treated cytoplasm vs control cytoplasm",2.438
same,"Differential protein expression, PIAS2","O75928, selinexor-treated cytoplasm vs control cytoplasm",100
same,"Differential protein expression, ZFAND5","O76080, selinexor-treated cytoplasm vs control cytoplasm",0.48
same,"Differential protein expression, SUPT7L","O94864, selinexor-treated cytoplasm vs control cytoplasm",0.01
same,"Differential protein expression, HEXIM1","O94992, selinexor-treated cytoplasm vs control cytoplasm",3.29
same,"Differential protein expression, SVIL","O95425, selinexor-treated cytoplasm vs control cytoplasm",0.01
same,"Differential protein expression, NUDT3","O95989, selinexor-treated cytoplasm vs control cytoplasm",3.124
same,"Differential protein expression, DHFR","P00374, selinexor-treated cytoplasm vs control cytoplasm",0.419
same,"Differential protein expression, OAS1","P00973, selinexor-treated cytoplasm vs control cytoplasm",2.17
same,"Differential protein expression, TIMP1","P01033, selinexor-treated cytoplasm vs control cytoplasm",2.021
same,"Differential protein expression, CSTA","P01040, selinexor-treated cytoplasm vs control cytoplasm",3.956
same,"Differential protein expression, FOS","P01100, selinexor-treated cytoplasm vs control cytoplasm",0.01
same,"Differential protein expression, KRT14","P02533, selinexor-treated cytoplasm vs control cytoplasm",3.261
same,"Differential protein expression, KRT6A","P02538, selinexor-treated cytoplasm vs control cytoplasm",3.082
same,"Differential protein expression, APOD","P05090, selinexor-treated cytoplasm vs control cytoplasm",7.079
same,"Differential protein expression, S100A8","P05109, selinexor-treated cytoplasm vs control cytoplasm",3.524
same,"Differential protein expression, CENPB","P07199, selinexor-treated cytoplasm vs control cytoplasm",0.01
same,"Differential protein expression, PRSS2","P07478, selinexor-treated cytoplasm vs control cytoplasm",0.479
same,"Differential protein expression, HNRNPC","P07910, selinexor-treated cytoplasm vs control cytoplasm",2.948
same,"Differential protein expression, ASNS","P08243, selinexor-treated cytoplasm vs control cytoplasm",0.353
same,"Differential protein expression, NFIC","P08651, selinexor-treated cytoplasm vs control cytoplasm",0.01
same,"Differential protein expression, KRT16","P08779, selinexor-treated cytoplasm vs control cytoplasm",4.248
same,"Differential protein expression, TOP2A","P11388, selinexor-treated cytoplasm vs control cytoplasm",0.458
same,"Differential protein expression, CDK4","P11802, selinexor-treated cytoplasm vs control cytoplasm",0.445
same,"Differential protein expression, NEFH","P12036, selinexor-treated cytoplasm vs control cytoplasm",2.248
same,"Differential protein expression, CDH1","P12830, selinexor-treated cytoplasm vs control cytoplasm",4.064
same,"Differential protein expression, KRT10","P13645, selinexor-treated cytoplasm vs control cytoplasm",2.123
same,"Differential protein expression, KRT5","P13647, selinexor-treated cytoplasm vs control cytoplasm",2.042
same,"Differential protein expression, CD59","P13987, selinexor-treated cytoplasm vs control cytoplasm",2.269
same,"Differential protein expression, PLA2G2A","P14555, selinexor-treated cytoplasm vs control cytoplasm",2.128
same,"Differential protein expression, CCNB1","P14635, selinexor-treated cytoplasm vs control cytoplasm",0.377
same,"Differential protein expression, MYL6B","P14649, selinexor-treated cytoplasm vs control cytoplasm",2.392
same,"Differential protein expression, HNRNPL","P14866, selinexor-treated cytoplasm vs control cytoplasm",2.044
same,"Differential protein expression, GLUL","P15104, selinexor-treated cytoplasm vs control cytoplasm",2.48
same,"Differential protein expression, ATF2","P15336, selinexor-treated cytoplasm vs control cytoplasm",0.01
same,"Differential protein expression, FOSL2","P15408, selinexor-treated cytoplasm vs control cytoplasm",100
same,"Differential protein expression, H1-3","P16402, selinexor-treated cytoplasm vs control cytoplasm",14.354
same,"Differential protein expression, ZKSCAN1","P17029, selinexor-treated cytoplasm vs control cytoplasm",100
same,"Differential protein expression, SDC1","P18827, selinexor-treated cytoplasm vs control cytoplasm",2.678
same,"Differential protein expression, ATF1","P18846, selinexor-treated cytoplasm vs control cytoplasm",100
same,"Differential protein expression, MYL12A","P19105, selinexor-treated cytoplasm vs control cytoplasm",2.269
same,"Differential protein expression, IMPDH1","P20839, selinexor-treated cytoplasm vs control cytoplasm",0.485
same,"Differential protein expression, TGM1","P22735, selinexor-treated cytoplasm vs control cytoplasm",2.137
same,"Differential protein expression, MYL9","P24844, selinexor-treated cytoplasm vs control cytoplasm",2.253
same,"Differential protein expression, DNMT1","P26358, selinexor-treated cytoplasm vs control cytoplasm",0.424
same,"Differential protein expression, RBL1","P28749, selinexor-treated cytoplasm vs control cytoplasm",0.395
same,"Differential protein expression, GRN","P28799, selinexor-treated cytoplasm vs control cytoplasm",2.493
same,"Differential protein expression, KDM5A","P29375, selinexor-treated cytoplasm vs control cytoplasm",0.01
same,"Differential protein expression, SERPINB3","P29508, selinexor-treated cytoplasm vs control cytoplasm",34.048
same,"Differential protein expression, SLC7A1","P30825, selinexor-treated cytoplasm vs control cytoplasm",0.272
same,"Differential protein expression, S100A7","P31151, selinexor-treated cytoplasm vs control cytoplasm",2.547
same,"Differential protein expression, RRM2","P31350, selinexor-treated cytoplasm vs control cytoplasm",0.284
same,"Differential protein expression, CASP14","P31944, selinexor-treated cytoplasm vs control cytoplasm",2.655
same,"Differential protein expression, CDA","P32320, selinexor-treated cytoplasm vs control cytoplasm",2.571
same,"Differential protein expression, GBP1","P32455, selinexor-treated cytoplasm vs control cytoplasm",0.01
same,"Differential protein expression, KRT9","P35527, selinexor-treated cytoplasm vs control cytoplasm",0.486
same,"Differential protein expression, MYH9","P35579, selinexor-treated cytoplasm vs control cytoplasm",2.051
same,"Differential protein expression, MYH10","P35580, selinexor-treated cytoplasm vs control cytoplasm",2.213
same,"Differential protein expression, HSD17B2","P37059, selinexor-treated cytoplasm vs control cytoplasm",2.045
same,"Differential protein expression, FDFT1","P37268, selinexor-treated cytoplasm vs control cytoplasm",0.453
same,"Differential protein expression, PBX3","P40426, selinexor-treated cytoplasm vs control cytoplasm",0.01
same,"Differential protein expression, SLC1A4","P43007, selinexor-treated cytoplasm vs control cytoplasm",0.439
same,"Differential protein expression, MATR3","P43243, selinexor-treated cytoplasm vs control cytoplasm",5.731
same,"Differential protein expression, RFX3","P48380, selinexor-treated cytoplasm vs control cytoplasm",0.152
same,"Differential protein expression, SERPINB4","P48594, selinexor-treated cytoplasm vs control cytoplasm",5.894
same,"Differential protein expression, HNRNPA3","P51991, selinexor-treated cytoplasm vs control cytoplasm",2.069
same,"Differential protein expression, ZNF131","P52739, selinexor-treated cytoplasm vs control cytoplasm",0.01
same,"Differential protein expression, RBM5","P52756, selinexor-treated cytoplasm vs control cytoplasm",0.01
same,"Differential protein expression, PLK1","P53350, selinexor-treated cytoplasm vs control cytoplasm",0.01
same,"Differential protein expression, CEBPG","P53567, selinexor-treated cytoplasm vs control cytoplasm",0.01
same,"Differential protein expression, MAPK12","P53778, selinexor-treated cytoplasm vs control cytoplasm",2.006
same,"Differential protein expression, POLG","P54098, selinexor-treated cytoplasm vs control cytoplasm",0.27
same,"Differential protein expression, EPHB3","P54753, selinexor-treated cytoplasm vs control cytoplasm",0.496
same,"Differential protein expression, PKNOX1","P55347, selinexor-treated cytoplasm vs control cytoplasm",0.01
same,"Differential protein expression, MAZ","P56270, selinexor-treated cytoplasm vs control cytoplasm",0.01
same,"Differential protein expression, HDAC4","P56524, selinexor-treated cytoplasm vs control cytoplasm",0.458
same,"Differential protein expression, PCBP3","P57721, selinexor-treated cytoplasm vs control cytoplasm",2.306
same,"Differential protein expression, CKS1B","P61024, selinexor-treated cytoplasm vs control cytoplasm",0.422
same,"Differential protein expression, POLR2F","P61218, selinexor-treated cytoplasm vs control cytoplasm",2.135
same,"Differential protein expression, SNRPE","P62304, selinexor-treated cytoplasm vs control cytoplasm",2.173
same,"Differential protein expression, SNRPF","P62306, selinexor-treated cytoplasm vs control cytoplasm",2.172
same,"Differential protein expression, SNRPD1","P62314, selinexor-treated cytoplasm vs control cytoplasm",2.056
same,"Differential protein expression, SNRPD2","P62316, selinexor-treated cytoplasm vs control cytoplasm",2.406
same,"Differential protein expression, RHOB","P62745, selinexor-treated cytoplasm vs control cytoplasm",0.01
same,"Differential protein expression, ARF1","P84077, selinexor-treated cytoplasm vs control cytoplasm",2.133
same,"Differential protein expression, H3-3A; H3-3B","P84243, selinexor-treated cytoplasm vs control cytoplasm",3.295
same,"Differential protein expression, HSPG2","P98160, selinexor-treated cytoplasm vs control cytoplasm",0.441
same,"Differential protein expression, KRT24","Q2M2I5, selinexor-treated cytoplasm vs control cytoplasm",2.716
same,"Differential protein expression, SMU1","Q2TAY7, selinexor-treated cytoplasm vs control cytoplasm",2.21
same,"Differential protein expression, KRT71","Q3SY84, selinexor-treated cytoplasm vs control cytoplasm",4.935
same,"Differential protein expression, COA6","Q5JTJ3, selinexor-treated cytoplasm vs control cytoplasm",2.872
